Assay results reported in US12590091B2, “1H-pyrrolo[3,2-C]pyridine and 1H-pyrrolo[2,3-C]pyridine derivatives as TLR9 inhibitors for the treatment of fibrosis” (BRISTOL-MYERS SQUIBB COMPANY, priority 2020, dated 2026).

Tests used:
human TLR9 = target: T1, human TLR9 (Homo sapiens, UniProt Q9NR96); experiment: TLR9 inhibition reporter assay (HEK-Blue cells, SEAP reporter); type: cell-based; conditions: HEK-Blue cells overexpressing human TLR9, stimulated with ODN2006 5 nM, 22 hour incubation
T1 construct: host or cells: HEK-Blue cells
T1 sequence (Q9NR96 26-1032): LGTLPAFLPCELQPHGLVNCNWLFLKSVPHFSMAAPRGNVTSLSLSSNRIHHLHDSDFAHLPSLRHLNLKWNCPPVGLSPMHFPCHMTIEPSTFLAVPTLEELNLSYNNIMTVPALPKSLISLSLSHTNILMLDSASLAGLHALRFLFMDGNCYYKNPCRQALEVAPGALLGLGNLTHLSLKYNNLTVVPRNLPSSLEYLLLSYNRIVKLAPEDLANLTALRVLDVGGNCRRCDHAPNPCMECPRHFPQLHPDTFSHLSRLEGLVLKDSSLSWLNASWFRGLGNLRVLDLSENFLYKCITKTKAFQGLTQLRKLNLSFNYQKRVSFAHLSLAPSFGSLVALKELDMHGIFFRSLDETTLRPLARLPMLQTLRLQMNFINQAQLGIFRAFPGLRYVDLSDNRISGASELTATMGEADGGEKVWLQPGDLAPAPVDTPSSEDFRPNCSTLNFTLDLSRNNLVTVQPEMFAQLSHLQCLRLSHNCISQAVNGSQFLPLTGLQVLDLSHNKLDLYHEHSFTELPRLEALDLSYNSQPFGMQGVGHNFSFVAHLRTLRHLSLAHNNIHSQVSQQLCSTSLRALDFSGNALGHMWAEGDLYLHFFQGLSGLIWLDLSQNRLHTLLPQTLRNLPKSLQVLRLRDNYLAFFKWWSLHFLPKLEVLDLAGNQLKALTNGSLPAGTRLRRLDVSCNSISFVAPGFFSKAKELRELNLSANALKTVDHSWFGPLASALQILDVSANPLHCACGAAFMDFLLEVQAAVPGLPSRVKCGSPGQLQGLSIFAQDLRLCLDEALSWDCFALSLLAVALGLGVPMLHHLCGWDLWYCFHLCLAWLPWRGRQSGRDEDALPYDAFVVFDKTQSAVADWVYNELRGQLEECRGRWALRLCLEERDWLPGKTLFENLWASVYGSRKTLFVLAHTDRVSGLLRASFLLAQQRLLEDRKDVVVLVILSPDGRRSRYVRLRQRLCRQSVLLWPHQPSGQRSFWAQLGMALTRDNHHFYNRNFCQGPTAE
Method: (§1) TLR7/8/9 Inhibition Reporter Assays
HEK-Blue™-cells (Invivogen) overexpressing human TLR7, TLR8 or TLR9 receptors were used for screening inhibitors of these receptors using an inducible SEAP (secreted embryonic alkaline phosphatase) reporter gene under the control of the IFN-β minimal promoter fused to five NF-κB and AP-1-binding sites. Briefly, cells are seeded into Greiner 384 well plates (15000 cells per well for TLR7, 20,000 for TLR8 and 25,000 for TLR9) and then treated with test compounds in DMSO to yield a final dose response concentration range of 0.05 nM-50 μM. […] After a 22 hour incubation at 37° C., 5% CO2, SEAP levels are determined with the addition of HEK-Blue™ Detection reagent (Invivogen), a cell culture medium that allows for detection of SEAP, according to manufacturer's specifications. The percent inhibition is determined as the % reduction in the HEK-Blue signal present in wells treated with agonist plus DMSO alone compared to wells treated with a known inhibitor.

human TLR7 = target: T2, human TLR7 (Homo sapiens, UniProt Q9NYK1); experiment: TLR7 inhibition reporter assay (HEK-Blue cells, SEAP reporter); type: cell-based; conditions: HEK-Blue cells overexpressing human TLR7, stimulated with gardiquimod 7.5 μM, 22 hour incubation
T2 construct: host or cells: HEK-Blue cells
T2 sequence (Q9NYK1 27-1049): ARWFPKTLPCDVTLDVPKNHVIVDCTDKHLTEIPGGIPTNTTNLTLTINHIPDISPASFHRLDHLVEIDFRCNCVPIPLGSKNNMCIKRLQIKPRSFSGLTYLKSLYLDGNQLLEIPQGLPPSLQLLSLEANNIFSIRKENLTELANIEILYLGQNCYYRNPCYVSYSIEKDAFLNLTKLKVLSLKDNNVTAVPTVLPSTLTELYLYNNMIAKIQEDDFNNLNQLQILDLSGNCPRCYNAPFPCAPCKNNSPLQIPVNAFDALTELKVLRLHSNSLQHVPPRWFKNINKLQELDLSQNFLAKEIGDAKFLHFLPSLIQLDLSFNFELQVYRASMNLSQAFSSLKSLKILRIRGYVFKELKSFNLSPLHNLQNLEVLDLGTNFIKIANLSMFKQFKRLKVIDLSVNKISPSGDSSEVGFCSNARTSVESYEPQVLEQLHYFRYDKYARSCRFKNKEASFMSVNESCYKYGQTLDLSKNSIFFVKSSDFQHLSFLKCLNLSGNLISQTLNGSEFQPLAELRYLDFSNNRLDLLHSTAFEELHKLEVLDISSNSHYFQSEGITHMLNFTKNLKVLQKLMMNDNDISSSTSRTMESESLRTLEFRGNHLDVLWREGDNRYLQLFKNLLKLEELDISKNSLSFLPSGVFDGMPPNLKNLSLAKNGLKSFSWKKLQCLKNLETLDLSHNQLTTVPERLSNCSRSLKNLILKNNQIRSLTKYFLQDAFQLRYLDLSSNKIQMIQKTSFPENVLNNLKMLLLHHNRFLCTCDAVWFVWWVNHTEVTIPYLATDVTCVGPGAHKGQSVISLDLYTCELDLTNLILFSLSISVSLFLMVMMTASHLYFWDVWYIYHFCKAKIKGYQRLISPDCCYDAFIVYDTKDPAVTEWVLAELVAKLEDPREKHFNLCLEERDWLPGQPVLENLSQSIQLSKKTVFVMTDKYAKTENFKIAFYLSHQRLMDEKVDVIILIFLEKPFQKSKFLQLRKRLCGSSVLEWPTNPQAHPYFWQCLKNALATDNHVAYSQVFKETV
Method: as §1
HEK-Blue™-cells (Invivogen) overexpressing human TLR7, TLR8 or TLR9 receptors were used for screening inhibitors of these receptors using an inducible SEAP (secreted embryonic alkaline phosphatase) reporter gene under the control of the IFN-β minimal promoter fused to five NF-κB and AP-1-binding sites. Briefly, cells are seeded into Greiner 384 well plates (15000 cells per well for TLR7, 20,000 for TLR8 and 25,000 for TLR9) and then treated with test compounds in DMSO to yield a final dose response concentration range of 0.05 nM-50 μM. After a 30 minute compound pre-treatment at room temperature, the cells are then stimulated with a TLR7 ligand (gardiquimod at a final concentration of 7.5 μM), TLR8 ligand (R848 at a final concentration of 15.9 μM) or TLR9 ligand (ODN2006 at a final concentration of 5 nM) to activate NF-κB and AP-1 which induce the production of SEAP. After a 22 hour incubation at 37° C., 5% CO2, SEAP levels are determined with the addition of HEK-Blue™ Detection reagent (Invivogen), a cell culture medium that allows for detection of SEAP, according to manufacturer's specifications. The percent inhibition is determined as the % reduction in the HEK-Blue signal present in wells treated with agonist plus DMSO alone compared to wells treated with a known inhibitor.

Row | Compound | IC50 (human TLR9) [µM] | IC50 (human TLR7) [µM]
1 | Cc1nc(-c2ccc(CN3C[C@H]4CC[C@@H]3CN4CC(C)(C)CO)cc2)cc2c1cc(-c1ccc(S(C)(=O)=O)cc1)n2C [Example 45, 3-((1R,4R)-5-(4-(1,4-Dimethyl-2-(4-(methylsulfonyl)phenyl)-1H-pyrrolo[3,2-c]pyridin-6-yl)benzyl)-2,5-diazabicyclo[2.2.2]octan-2-yl)-2,2-dimethylpropan-1-ol] | 0.068 | 0.75
2 | Cc1nc(-c2ccc(N3CCN(CC(C)C)CC3)cc2)cc2c1cc(-c1cccc(S(C)(=O)=O)c1)n2C [Example 40, 6-(4-(4-isobutylpiperazin-1-yl)phenyl)-1,4-dimethyl-2-(3-(methylsulfonyl)phenyl)-1H-pyrrolo[3,2-c]pyridine] | 0.098 | 
3 | Cc1nc(-c2ccc(N3CCN(C(C)C)CC3)cc2)cc2c1cc(-c1cccc(S(C)(=O)=O)c1)n2C [Example 39, 6-(4-(4-isopropylpiperazin-1-yl)phenyl)-1,4-dimethyl-2-(3-(methylsulfonyl)phenyl)-1H-pyrrolo[3,2-c]pyridine] | 0.672 | 
4 | Cc1nc(-c2ccc(N3CC4CCC(C3)N4C(C)C)cc2)cc2c1cc(-c1ccc(S(C)(=O)=O)cc1)n2C [Example 64, 6-(4-(8-isopropyl-3,8-diazabicyclo[3.2.1]octan-3-yl)phenyl)-1,4-dimethyl-2-(4-(methylsulfonyl)phenyl)-1H-pyrrolo[3,2-c]pyridine] | 0.0064 | 
5 | Cc1nc(-c2ccc(N3CCN4CCCC4C3)c(F)c2)cc2c1cc(-c1ccc(S(C)(=O)=O)cc1)n2C (stereo not shown) [Example 65, 6-(3-fluoro-4-(hexahydropyrrolo[1,2-a]pyrazin-2(1H)-yl)phenyl)-1,4-dimethyl-2-(4-(methylsulfonyl)phenyl)-1H-pyrrolo[3,2-c]pyridine] | 0.136 | 
6 | Cc1nc(-c2ccc(N3CCN(C4CC4)CC3)cc2)cc2c1cc(-c1ccc(S(C)(=O)=O)cc1)n2C [Example 62, 6-(4-(4-cyclopropylpiperazin-1-yl)phenyl)-1,4-dimethyl-2-(4-(methylsulfonyl)phenyl)-1H-pyrrolo[3,2-c]pyridine] | 0.105 | 

Further lines, results first:

Row | IC50 (human TLR9) [µM] | IC50 (human TLR7) [µM] | Compound
7 | 0.557 | 7.8 | Cc1nc(-c2ccc(CN3CCN(CCC(C)(C)O)CC3)cc2)cc2c1cc(-c1ccc(S(C)(=O)=O)cc1)n2C(F)F [Example 117, 4-[4-[[4-[1-(difluoromethyl)-4-methyl-2-(4-methylsulfonylphenyl)pyrrolo[3,2-c]pyridin-6-yl]phenyl]methyl]piperazin-1-yl]-2-methyl-butan-2-ol]
8 | 0.299 |  | Cc1nc(-c2cccc(N3CCN(C4CC4)CC3)c2)cc2c1cc(-c1ccc(S(C)(=O)=O)cc1)n2C [Example 68, 6-(3-(4-cyclopropylpiperazin-1-yl)phenyl)-1,4-dimethyl-2-(4-(methylsulfonyl)phenyl)-1H-pyrrolo[3,2-c]pyridine]
9 | 0.058 |  | Cc1nc(-c2ccc(N3CCN(CCc4ccc(I)cc4)CC3)cc2)cc2c1cc(-c1ccc(S(C)(=O)=O)cc1)n2C [Example 110, 6-(4-(4-(4-iodophenethyl)piperazin-1-yl)phenyl)-1,4-dimethyl-2-(4-(methylsulfonyl)phenyl)-1H-pyrrolo[3,2-c]pyridine]
10 | 0.113 |  | Cc1nc(-c2ccc(N3CCN(CCc4ccc(Br)cc4)CC3)cc2)cc2c1cc(-c1ccc(S(C)(=O)=O)cc1)n2C [Example 111, 6-(4-(4-(4-bromophenethyl)piperazin-1-yl)phenyl)-1,4-dimethyl-2-(4-(methylsulfonyl)phenyl)-1H-pyrrolo[3,2-c]pyridine]
11 | 0.087 |  | Cc1nc(-c2ccc(N3CCN(Cc4ccc(I)cc4)CC3)cc2)cc2c1cc(-c1ccc(S(C)(=O)=O)cc1)n2C [Example 112, 6-(4-(4-(4-iodobenzyl)piperazin-1-yl)phenyl)-1,4-dimethyl-2-(4-(methylsulfonyl)phenyl)-1H-pyrrolo[3,2-c]pyridine]
